Target: T1, recombinant human ULK1 protein (1-649) (Homo sapiens, UniProt O75385)
T1 construct: recombinant human ULK1 protein (1-649, SignalChem #U01-11G); purchased SignalChem U01-11G
T1 sequence (O75385 1-649): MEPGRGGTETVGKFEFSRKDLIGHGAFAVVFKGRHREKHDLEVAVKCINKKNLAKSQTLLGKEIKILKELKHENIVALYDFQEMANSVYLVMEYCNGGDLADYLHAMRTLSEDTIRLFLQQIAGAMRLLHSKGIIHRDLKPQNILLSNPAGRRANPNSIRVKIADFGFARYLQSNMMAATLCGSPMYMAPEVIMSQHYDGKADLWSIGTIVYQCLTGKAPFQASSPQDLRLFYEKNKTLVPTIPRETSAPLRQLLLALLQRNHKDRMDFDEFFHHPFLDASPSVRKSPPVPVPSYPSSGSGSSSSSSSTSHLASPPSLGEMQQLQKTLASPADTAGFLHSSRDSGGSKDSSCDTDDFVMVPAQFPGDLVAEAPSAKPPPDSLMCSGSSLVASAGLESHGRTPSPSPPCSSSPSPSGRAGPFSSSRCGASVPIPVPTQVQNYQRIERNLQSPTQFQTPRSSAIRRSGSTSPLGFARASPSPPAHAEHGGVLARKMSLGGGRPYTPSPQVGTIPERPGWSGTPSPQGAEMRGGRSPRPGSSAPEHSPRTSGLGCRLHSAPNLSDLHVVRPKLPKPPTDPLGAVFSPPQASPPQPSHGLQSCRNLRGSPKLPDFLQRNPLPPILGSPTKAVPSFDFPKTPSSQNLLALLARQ
Test: ULK1 inhibition assay (ADP Glo)
Type: biochemical
Conditions: Table 1; 25 uM ATP, MBP substrate, one hour
Protocol: Illustrative compounds of Formula I and related analogs are shown in Table 1 (along with their respective IC50 values for ULK1 inhibition assays). For ADP Glo assay, IC50s are represented nM, with A representing IC50<1 nM, B representing 10 nM>IC50>1 nM, and C representing IC50>10 nM. NT indicates the compound was not tested. ULK1 inhibition assays were performed in a 5 uL reaction volume containing 2 ug/mL recombinant human ULK1 protein (1-649, SignalChem #U01-11G) and 80 ug/mL myelin basic protein (MBP, Sigma-Aldrich #M1891) in the presence of 25 uM ATP (Sigma-Aldrich A7699). ULK 1 inhibition was assessed after one hour. Compounds were tested in triplicate in a 16-dose IC50 mode with 3-fold serial dilution and a starting dose of 30 uM. Staurosporine, a non-selective protein kinase inhibitor, was used in the assay as a positive control.
According to another embodiment, the present disclosure provides methods of producing the above-defined compounds. The compounds may be synthesized using any suitable techniques. Advantageously, these compounds are conveniently synthesized from readily available starting materials. Synthetic chemistry transformations and methodologies useful in synthesizing the compounds described herein are known in the art and include, for example, those described in R. Larock, Comprehensive Organic Transformations (1989); T. W. Greene and P. G. M. Wuts, Protective Groups in Organic Synthesis, 2d. Ed. (1991); L. Fieser and M. Fieser, Fieser and Fieser's Reagents for Organic Synthesis (1994); and L. Paquette, ed., Encyclopedia of Reagents for Organic Synthesis (1995).). In general, synthesis and measurements of ULK1 inhibitory activity of the compounds described herein was performed using method analogous to those previously described in PCT International Application No. PCT/US2015/046777 which is hereby incorporated by reference in its entirety.

IC50, 1 to 10 nM:
CS(=O)(=O)N1CCc2cc(Nc3ncc(C(F)(F)F)c(NC4CC4)n3)ccc2C1 [Compound A12]
NOCC(=O)N1CCc2cc(Nc3ncc(C(F)(F)F)c(NC4CC4)n3)ccc2C1 [Compound A80]
NCCN1CCc2ccc(Nc3ncc(C(F)(F)F)c(NC4CC4)n3)cc2C1 [Compound A103]
OCCN1CCc2ccc(Nc3ncc(C(F)(F)F)c(NC4CC4)n3)cc2C1 [Compound A106]
FC(F)(F)c1cnc(Nc2ccc3c(c2)CCN(C2COC2)C3)nc1NC1CC1 [Compound A9]
FC(F)(F)c1cnc(Nc2ccc3c(c2)CN(CC2OCCO2)CC3)nc1NC1CC1 [Compound A79]
FC(F)(F)c1cnc(Nc2ccc3c(c2)CCN(Cc2ccoc2)C3)nc1NC1CC1 [Compound A92]

IC50, > 10 nM:
CNC(=O)c1ccccc1Nc1nc(Nc2ccc3c(c2)CN(Cc2ccncn2)CC3)ncc1Br [Compound A160, 2-[5-Bromo-2-(2-pyrimidin-4-ylmethyl-1,2,3,4-tetrahydro-isoquinolin-7-ylamino)-pyrimidin-4-ylamino]-N-methyl-benzamide]
CNC(=O)c1ccccc1Nc1nc(Nc2ccc3c(c2)CN(CCN)CC3)ncc1Br [Compound A151, 2-{2-[2-(2-Amino-ethyl)-1,2,3,4-tetrahydro-isoquinolin-7-ylamino]-5-bromo-pyrimidin-4-ylamino}-N-methyl-benzamide]
CNC(=O)c1ccccc1Nc1nc(Nc2ccc3c(c2)CC[N+](C)(C)C3)ncc1Br [Compound A143, 6-[5-Bromo-4-(2-methylcarbamoyl-phenylamino)-pyrimidin-2-ylamino]-2,2-dimethyl-1,2,3,4-tetrahydro-isoquinolinium; iodide]
CN1CCc2cc(Nc3ncc(N)c(NC4CC4)n3)ccc2C1 [Compound A61]
CNC(=O)c1ccccc1Nc1nc(Nc2ccc3c(c2)CCN(S(N)(=O)=O)C3)ncc1Br [Compound A140, 2-[5-Bromo-2-(2-sulfamoyl-1,2,3,4-tetrahydro-isoquinolin-6-ylamino)-pyrimidin-4-ylamino]-N-methyl-benzamide]
CNC(=O)c1ccccc1Nc1nc(Nc2ccc3c(c2)CCN(CCC(=O)O)C3)ncc1Br [Compound A141, 3-{6-[5-Bromo-4-(2-methylcarbamoyl-phenylamino)-pyrimidin-2-ylamino]-3,4-dihydro-1H-isoquinolin-2-yl}-propionic acid]
CNC(=O)c1ccccc1Nc1nc(Nc2ccc3c(c2)CCN(Cc2ccc(OC)cc2)C3)ncc1Br [Compound A129, 2-{5-Bromo-2-[2-(4-methoxy-benzyl)-1,2,3,4-tetrahydro-isoquinolin-6-ylamino]-pyrimidin-4-ylamino}-N-methyl-benzamide]
CNC(=O)c1ccccc1Nc1nc(Nc2ccc3c(c2)CCN(C(=O)CCN)C3)ncc1Br [Compound A136, 2-{2-[2-(3-Amino-propionyl)-1,2,3,4-tetrahydro-isoquinolin-6-ylamino]-5-bromo-pyrimidin-4-ylamino}-N-methyl-benzamide]
CNC(=O)c1ccccc1Nc1nc(Nc2ccc3c(c2)CCN(C(=O)CN)C3)ncc1Br [Compound A132, 2-{2-[2-(2-Amino-acetyl)-1,2,3,4-tetrahydro-isoquinolin-6-ylamino]-5-bromo-pyrimidin-4-ylamino}-N-methyl-benzamide]
CCOC(=O)c1cnc(Nc2ccc3c(c2)CCN(C(=O)OC(C)(C)C)C3)nc1NC1CC1 [Compound A28]
O=C(O)c1cnc(Nc2ccc3c(c2)CCNC3)nc1NC1CC1 [Compound A85]
CNC(=O)c1ccccc1Nc1nc(Nc2ccc3c(c2)CN(CC(=O)N2CCOCC2)CC3)ncc1Br [Compound A148, 2-{5-Bromo-2-[2-(2-morpholin-4-yl-2-oxo-ethyl)-1,2,3,4-tetrahydro-isoquinolin-7-ylamino]-pyrimidin-4-ylamino}-N-methyl-benzamide]
CNC(=O)c1ccccc1Nc1nc(Nc2ccc3c(c2)CN(C(=O)N2CCN(C)CC2)CC3)ncc1Br [Compound A150, 2-{5-Bromo-2-[2-(4-methyl-piperazine-1-carbonyl)-1,2,3,4-tetrahydro-isoquinolin-7-ylamino]-pyrimidin-4-ylamino}-N-methyl-benzamide]

IC50, < 1 nM:
FC(F)(F)c1cnc(Nc2ccc3c(c2)CCN(CC2OCCO2)C3)nc1NC1CC1 [Compound A17]
FC(F)(F)c1cnc(Nc2ccc3c(c2)CCN(CCN2CCOCC2)C3)nc1NC1CC1 [Compound A5]
FC(F)(F)c1cnc(Nc2ccc3c(c2)CCN(Cc2cncnc2)C3)nc1NC1CC1 [Compound A49]
COc1ccc(CN2CCc3cc(Nc4ncc(C(F)(F)F)c(NC5CC5)n4)ccc3C2)cc1 [Compound A113]
FC(F)(F)c1cnc(Nc2ccc3c(c2)CCN(CCS)C3)nc1NC1CC1 [Compound A23]
NCC(=O)N1CCc2cc(Nc3ncc(C(F)(F)F)c(NC4CC4)n3)ccc2C1 [Compound A27]
NCCN1CCc2cc(Nc3ncc(C(F)(F)F)c(NC4CC4)n3)ccc2C1 [Compound A34]
CSCCN1CCc2cc(Nc3ncc(C(F)(F)F)c(NC4CC4)n3)ccc2C1 [Compound A11]
CN1CCc2cc(Nc3ncc(Br)c(NC4CC4)n3)ccc2C1 [Compound A65]

Same assay, conditions: Table 2

IC50, 100 to 1000 nM:
COC(=O)c1ccccc1Oc1nc(Nc2ccc3[nH]ncc3c2)ncc1Br [Compound B26]

IC50, < 100 nM:
COC(=O)c1ccccc1Oc1nc(Nc2cc(OC)c(OC)c(OC)c2)ncc1Br [Compound B2]

IC50, > 1000 nM:
COC(=O)c1ccccc1Oc1nc(Nc2cc(F)c(OC)c(F)c2)ncc1Br [Compound B34]
COC(=O)c1ccccc1Oc1nc(Nc2ccc(N3CCNCC3)cc2)ncc1Br [Compound B47]
COC(=O)c1ccccc1Oc1nc(Nc2cc(C)c(C)c(C)c2)ncc1Br [Compound B16]
COC(=O)c1ccccc1Oc1nc(Nc2ccc(OC(F)(F)F)cc2)ncc1Br [Compound B13]
COc1cc(Nc2ncc(Br)c(Oc3ccccc3C(=O)NCCS(C)(=O)=O)n2)cc(OC)c1OC [Compound B8]
COC(=O)c1ccccc1Oc1nc(Nc2ccc(OC(F)F)cc2)ncc1Br [Compound B25]
COC(=O)c1ccccc1Oc1nc(Nc2cccc(C(F)(F)F)c2)ncc1Br [Compound B28]

Same assay, conditions: Table 3

IC50, 5 to 100 nM:
COc1cc(Nc2ncc(Br)c(Nc3ccccc3CNCC(N)=O)n2)cc(OC)c1OC [Compound C25]
COc1ccc(Nc2ncc(Br)c(Nc3ccccc3CO)n2)cc1 [Compound C5]
CNC(=O)c1ccccc1Nc1nc(Nc2cccc(OC)c2)ncc1Br [Compound E14, 2-((5-Bromo-2-((3-methoxyphenyl)amino)pyrimidin-4-yl)amino)-N-methylbenzamide]
CNC(=O)c1ccccc1Nc1nc(Nc2cccc(OC(F)(F)F)c2)ncc1Br [Compound E21, 2-((5-Bromo-2-((3-(trifluoromethoxy)phenyl)amino)pyrimidin-4-yl)amino)-N-methylbenzamide]
CNC(=O)c1ccccc1Nc1nc(Nc2cc(OC)cc(OC)c2)ncc1Br [Compound E17, 2-((5-Bromo-2-((3,5-dimethoxyphenyl)amino)pyrimidin-4-yl)amino)-N-methylbenzamide]

IC50, < 5 nM:
NCc1ccc(Nc2ncc(C(F)(F)F)c(NC3CC3)n2)cc1 [Compound D3]

IC50, > 100 nM:
CNC(=O)c1cccc(Nc2nc(Nc3cc(OC)c(OC)c(OC)c3)ncc2Br)c1 [Compound E26, 3-((5-Bromo-2-((3,4,5-trimethoxyphenyl)amino)pyrimidin-4-yl)amino)-N-methylbenzamide]
